Test results reported in US20020115699A1, “Method for treating renal disease” (SmithKline Beecham p.l.c., priority 1994, published 2002).

What was measured:
[1] = system: Zucker fatty (fa/fa) rats; test: Urinary total protein (Bio-Rad dye-binding assay, 24 h urine) in 9 month Zucker rat study; assay type: in vivo; conditions: Zucker fatty rats; for URINARY PROTEIN CONCENTRATION: mean ± SEM
Protocol: A second study was performed in Zucker rats over a period of 9 months to investigate the longitudinal effects of the drug on systolic blood pressure and various indices of renal function, two of which are exemplified here. […] A third group of Zucker fatty rats and a further group of lean rats were given diet alone throughout the period of study. After dosing with the test compound, at monthly intervals measurements were made of systolic blood pressure, urinary total protein and urinary N-acetyl β-D-glucosaminidase (NAG) activity. Twenty-four hour urine collections, made in metabolism cages, were aliquoted and frozen at −70° C. until required for assay. Urinary protein concentration was measured using the Bio-Rad protein assay as modified for use in a 96-well microtitre plate. The assay is a dye-binding assay based on the differential colour change of a dye in response to various concentrations of protein (Bradford, Anal. Biochem., 72, 248, 1976). After a period of incubation with Dye Reagent, diluted urine samples are read at an optical density of 595 nm using a Molecular Devices multiplate reader.

[2] = system: Zucker fatty (fa/fa) rats; test: Urinary N-acetyl β-D-glucosaminidase (NAG) activity in 9 month Zucker rat study; assay type: in vivo; conditions: for URINARY N-ACETYL-β-D-GLUCOSAMINIDASE ACTIVITY: mean ± SEM
Protocol: A second study was performed in Zucker rats over a period of 9 months to investigate the longitudinal effects of the drug on systolic blood pressure and various indices of renal function, two of which are exemplified here. In one arm of the study, the drug was given in the diet (50 μmole/kg of diet) from aged 6-7 weeks in Zucker fatty (fa/fa) rats, whilst in a second arm of the study, drug treatment as above was delayed until proteinuria had become established after 4 months, indicative of structural damage already present in the kidneys. A third group of Zucker fatty rats and a further group of lean rats were given diet alone throughout the period of study.
After dosing with the test compound, at monthly intervals measurements were made of systolic blood pressure, urinary total protein and urinary N-acetyl β-D-glucosaminidase (NAG) activity.
Twenty-four hour urine collections, made in metabolism cages, were aliquoted and frozen at −70° C. until required for assay.
NAG activity was assayed using a reagent kit on a Hitachi 717 analyser (both suppied by Boehringer Mannheim UK, Lewes). Enzyme activity was measured by monitoring the rate of chlorophenol (570 nm) released from the substrate chlorophenol red-β-D-glucosaminide.
In the tables below, results are given as mean values for the group ±the standard error of the mean. Results have been analysed by one way ANOVA and significant differences from the Zucker fatty rat control group have been indicated by an asterisk.

## CN(CCOc1ccc(CC2SC(=O)NC2=O)cc1)c1ccccn1 (centres unmarked) [Test Compound, 5-[4-[2-(N-methyl-N-(2-pyridyl)amino)ethoxy]benzyl]thiazolidine-2,4-dione]
[1]; 50 μmol/kg of diet from age 6-7 weeks (prior to renal complications), treatment duration 8 months
  URINARY PROTEIN CONCENTRATION: 2664 ± 370 µg/h
[1]; 50 μmol/kg of diet from age 6-7 weeks (prior to renal complications), treatment duration 9 months
  URINARY PROTEIN CONCENTRATION: 3152 ± 515 µg/h
[1]; 50 μmol/kg of diet started once renal complications established (after 4 months), treatment duration 0 months
  URINARY PROTEIN CONCENTRATION: 3520 ± 905 µg/h
[1]; 50 μmol/kg of diet started once renal complications established (after 4 months), treatment duration 1 month
  URINARY PROTEIN CONCENTRATION: 3690 ± 386 µg/h
[1]; 50 μmol/kg of diet started once renal complications established (after 4 months), treatment duration 2 months
  URINARY PROTEIN CONCENTRATION: 5330 ± 967 µg/h
[1]; 50 μmol/kg of diet started once renal complications established (after 4 months), treatment duration 3 months
  URINARY PROTEIN CONCENTRATION: 6230 ± 835 µg/h
[1]; 50 μmol/kg of diet started once renal complications established (after 4 months), treatment duration 4 months
  URINARY PROTEIN CONCENTRATION: 5380 ± 708 µg/h
[1]; 50 μmol/kg of diet started once renal complications established (after 4 months), treatment duration 5 months
  URINARY PROTEIN CONCENTRATION: 7680 ± 825 µg/h
[1]; 50 μmol/kg of diet started once renal complications established (after 4 months), treatment duration −1 month (before start of drug)
  URINARY PROTEIN CONCENTRATION: 958 ± 194 µg/h
[1]; 50 μmol/kg of diet started once renal complications established (after 4 months), treatment duration −2 months (before start of drug)
  URINARY PROTEIN CONCENTRATION: 457 ± 21 µg/h
[1]; 50 μmol/kg of diet started once renal complications established (after 4 months), treatment duration −3 months (before start of drug)
  URINARY PROTEIN CONCENTRATION: 347 ± 32 µg/h
[1]; 50 μmol/kg of diet started once renal complications established (after 4 months), treatment duration −4 months (before start of drug)
  URINARY PROTEIN CONCENTRATION: 220 ± 13 µg/h
[1]; drug treatment commenced after proteinuria had become established
  rate of increase in the urinary protein concentration: marked reduction
[2]; Zucker fatty (fa/fa) rats treated from age 6-7 weeks for 9 months via the diet
  elevation of urinary NAG activity: markedly reduced
[2]; Zucker fatty rats, 50 μmol/kg of diet from age 6-7 weeks (prior to renal complications), treatment duration 0 months
  URINARY N-ACETYL-β-D-GLUCOSAMINIDASE ACTIVITY: 5.7 ± 0.4 mU/hour
[2]; Zucker fatty rats, 50 μmol/kg of diet from age 6-7 weeks (prior to renal complications), treatment duration 1 month
  URINARY N-ACETYL-β-D-GLUCOSAMINIDASE ACTIVITY: 7.5 ± 0.7 mU/hour
[2]; Zucker fatty rats, 50 μmol/kg of diet from age 6-7 weeks (prior to renal complications), treatment duration 2 months
  URINARY N-ACETYL-β-D-GLUCOSAMINIDASE ACTIVITY: 3.8 ± 1.1 mU/hour
[2]; Zucker fatty rats, 50 μmol/kg of diet from age 6-7 weeks (prior to renal complications), treatment duration 3 months
  URINARY N-ACETYL-β-D-GLUCOSAMINIDASE ACTIVITY: 4.5 ± 0.9 mU/hour
[2]; Zucker fatty rats, 50 μmol/kg of diet from age 6-7 weeks (prior to renal complications), treatment duration 4 months
  URINARY N-ACETYL-β-D-GLUCOSAMINIDASE ACTIVITY: 5.1 ± 1.2 mU/hour
[2]; Zucker fatty rats, 50 μmol/kg of diet from age 6-7 weeks (prior to renal complications), treatment duration 5 months
  URINARY N-ACETYL-β-D-GLUCOSAMINIDASE ACTIVITY: 6.5 ± 0.7 mU/hour
[2]; Zucker fatty rats, 50 μmol/kg of diet from age 6-7 weeks (prior to renal complications), treatment duration 6 months
  URINARY N-ACETYL-β-D-GLUCOSAMINIDASE ACTIVITY: 6.5 ± 1.1 mU/hour
[2]; Zucker fatty rats, 50 μmol/kg of diet from age 6-7 weeks (prior to renal complications), treatment duration 7 months
  URINARY N-ACETYL-β-D-GLUCOSAMINIDASE ACTIVITY: 8.9 ± 0.8 mU/hour
[2]; Zucker fatty rats, 50 μmol/kg of diet from age 6-7 weeks (prior to renal complications), treatment duration 8 months
  URINARY N-ACETYL-β-D-GLUCOSAMINIDASE ACTIVITY: 6.2 ± 1.2 mU/hour
[2]; Zucker fatty rats, 50 μmol/kg of diet from age 6-7 weeks (prior to renal complications), treatment duration 9 months
  URINARY N-ACETYL-β-D-GLUCOSAMINIDASE ACTIVITY: 9.1 ± 1.2 mU/hour
[2]; Zucker fatty rats, 50 μmol/kg of diet started once renal complications established (after 4 months), treatment duration 0 months
  URINARY N-ACETYL-β-D-GLUCOSAMINIDASE ACTIVITY: 7.6 ± 0.7 mU/hour
[2]; Zucker fatty rats, 50 μmol/kg of diet started once renal complications established (after 4 months), treatment duration 1 month
  URINARY N-ACETYL-β-D-GLUCOSAMINIDASE ACTIVITY: 7.6 ± 0.7 mU/hour
[2]; Zucker fatty rats, 50 μmol/kg of diet started once renal complications established (after 4 months), treatment duration 2 months
  URINARY N-ACETYL-β-D-GLUCOSAMINIDASE ACTIVITY: 5.7 ± 0.9 mU/hour
[2]; Zucker fatty rats, 50 μmol/kg of diet started once renal complications established (after 4 months), treatment duration 3 months
  URINARY N-ACETYL-β-D-GLUCOSAMINIDASE ACTIVITY: 7.4 ± 0.9 mU/hour
[2]; Zucker fatty rats, 50 μmol/kg of diet started once renal complications established (after 4 months), treatment duration 4 months
  URINARY N-ACETYL-β-D-GLUCOSAMINIDASE ACTIVITY: 5.4 ± 1.0 mU/hour
[2]; Zucker fatty rats, 50 μmol/kg of diet started once renal complications established (after 4 months), treatment duration 5 months
  URINARY N-ACETYL-β-D-GLUCOSAMINIDASE ACTIVITY: 8.0 ± 1.1 mU/hour
[2]; Zucker fatty rats, 50 μmol/kg of diet started once renal complications established (after 4 months), treatment duration −1 month (before start of drug)
  URINARY N-ACETYL-β-D-GLUCOSAMINIDASE ACTIVITY: 7.8 ± 0.6 mU/hour
[2]; Zucker fatty rats, 50 μmol/kg of diet started once renal complications established (after 4 months), treatment duration −2 months (before start of drug)
  URINARY N-ACETYL-β-D-GLUCOSAMINIDASE ACTIVITY: 9.5 ± 1.1 mU/hour
[2]; Zucker fatty rats, 50 μmol/kg of diet started once renal complications established (after 4 months), treatment duration −3 months (before start of drug)
  URINARY N-ACETYL-β-D-GLUCOSAMINIDASE ACTIVITY: 8.3 ± 0.5 mU/hour
[2]; Zucker fatty rats, 50 μmol/kg of diet started once renal complications established (after 4 months), treatment duration −4 months (before start of drug)
  URINARY N-ACETYL-β-D-GLUCOSAMINIDASE ACTIVITY: 5.4 ± 0.2 mU/hour
[2]; Zucker fatty rats, drug treatment commenced after proteinuria had become established
  urinary NAG activity: prevented from rising further
